Reference: article PMC12714254, “Exploiting peptide chirality and transport to dissect the complex mechanism of action of host peptides on bacteria” (PLOS Genetics, 2025)

Legend:
S. meliloti cell cycle = system: S. meliloti cell cycle; set-up: method as in PMID 24501120; details: ref [12]; cited from earlier work
[1] = system: in vitro coupled transcription-translation (GFP reporter); experiment: In vitro translation assay, GFP fluorescence; assay type: biochemical; details: same molarity, S3C Fig

Substance	cell cycle changes (S. meliloti cell cycle)	translation inhibition by LL37 vs NCR247 [1]
LL37: cationic peptide LL37 (LLGDFFRKSKEKIGKEFKRIVQRIKDFLRNLVPRTES; Antibacterial peptide LL-37; UniProt P49913 134-170, looked up)	cannot elicit cell cycle changes	very diminished phenotype as compared to the L-NCR247 and was lesser than the inhibition by D-NCR247
Polymyxin B	cannot elicit cell cycle changes	–
